Results: PubChem BioAssay AID2060895 (Molecular Pharmacology Branch, DTP, NCI, 2025)

Test system: PDC 899932-113-R3-J6 complex spheroid viability
Assay: Anticancer human tumor 899932-113-R3-J6-PDC patient-derived melanoma cell line growth inhibition [RAS]
Settings: for IC50: curve of first compound; for viability, T/C: stronger effect = lower value
Procedure, shortened: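 Tumour cells grown as complex spheroids with HUVEC endothelial cells and mesenchymal stem cells, treated with RAS pathway inhibitor combinations. Each agent spans half-log steps from near clinical Cmax, or 10 microM where Cmax is unknown.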

[1] = second compound 0.000949 µM, first compound 0.0316 µM
[2] = second compound 0.000949 µM, first compound 0.1 µM
[3] = second compound 0.000949 µM, first compound 0.316 µM
[4] = second compound 0.000949 µM, first compound 1 µM
[5] = second compound 0.000949 µM, first compound 3.16 µM
[6] = second compound 0.000949 µM, first compound 10 µM
[7] = second compound 0.003 µM, first compound 0.0316 µM
[8] = second compound 0.003 µM, first compound 0.1 µM
[9] = second compound 0.003 µM, first compound 0.316 µM
[10] = second compound 0.003 µM, first compound 1 µM
[11] = second compound 0.003 µM, first compound 3.16 µM
[12] = second compound 0.003 µM, first compound 10 µM
[13] = second compound 0.00949 µM, first compound 0.0316 µM
[14] = second compound 0.00949 µM, first compound 0.1 µM
[15] = second compound 0.00949 µM, first compound 0.316 µM
[16] = second compound 0.00949 µM, first compound 1 µM
[17] = second compound 0.00949 µM, first compound 3.16 µM
[18] = second compound 0.00949 µM, first compound 10 µM
[19] = second compound 0.03 µM, first compound 0.0316 µM
[20] = second compound 0.03 µM, first compound 0.1 µM
[21] = second compound 0.03 µM, first compound 0.316 µM
[22] = second compound 0.03 µM, first compound 1 µM
[23] = second compound 0.03 µM, first compound 3.16 µM
[24] = second compound 0.03 µM, first compound 10 µM
[25] = second compound 0.0949 µM, first compound 0.0316 µM
[26] = second compound 0.0949 µM, first compound 0.1 µM
[27] = second compound 0.0949 µM, first compound 0.316 µM
[28] = second compound 0.0949 µM, first compound 1 µM
[29] = second compound 0.0949 µM, first compound 3.16 µM
[30] = second compound 0.0949 µM, first compound 10 µM
[31] = second compound 0.3 µM, first compound 0.0316 µM
[32] = second compound 0.3 µM, first compound 0.1 µM
[33] = second compound 0.3 µM, first compound 0.316 µM
[34] = second compound 0.3 µM, first compound 1 µM
[35] = second compound 0.3 µM, first compound 3.16 µM
[36] = second compound 0.3 µM, first compound 10 µM
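For viability, T/C in this document: spheroids exposed to agents for seven days before readout; 100% = DMSO vehicle control wells.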

For CC(C)NCC(C(=O)N1CCN(c2ncnc3c2C(C)CC3O)CC1)c1ccc(Cl)cc1 (stereo not drawn) + CCn1c(-c2cc(N3CCN(C)CC3)cnc2C(C)OC)c2c3cc(ccc31)-c1csc(n1)CC(NC(=O)C1CC1C)C(=O)N1CCCC(N1)C(=O)OCC(C)(C)C2, the IC50 (second compound 0.000949 µM) was 1180 nM, the IC50 (second compound 0.003 µM) was under 31.6 nM and the IC50 (second compound 0.00949 µM) was under 31.6 nM. The IC50 (second compound 0.03 µM) was under 31.6 nM, the IC50 (second compound 0.0949 µM) was under 31.6 nM and the IC50 (second compound 0.3 µM) was under 31.6 nM. For the same compound, the viability, T/C [1] was 80.5%, the viability, T/C [2] was 75.4% and the viability, T/C [3] was 61.7%. For the same compound, the viability, T/C [4] was 53.7%, the viability, T/C [5] was 37.1% and the viability, T/C [6] was 14.6%. The viability, T/C [7] was 34.5%, the viability, T/C [8] was 32.8% and the viability, T/C [9] was 26.5%. For the same compound, the viability, T/C [10] was 19.6%, the viability, T/C [11] was 10% and the viability, T/C [12] was 5.05%. The viability, T/C [13] was 4.77%, the viability, T/C [14] was 3.31% and the viability, T/C [15] was 3.85%. It also gave a viability, T/C [16] of 2.39%, a viability, T/C [17] of 1.83% and a viability, T/C [18] of 1.29%. For the same compound, the viability, T/C [19] was 3.08%, the viability, T/C [20] was 2.84% and the viability, T/C [21] was 2.3%. It also gave a viability, T/C [22] of 1.95%, a viability, T/C [23] of 0.99% and a viability, T/C [24] of 0.77%. It also gave a viability, T/C [25] of 2.64%, a viability, T/C [26] of 2.19% and a viability, T/C [27] of 2.43%. It also gave a viability, T/C [28] of 1.31%, a viability, T/C [29] of 1.13% and a viability, T/C [30] of 0.37%. It also gave a viability, T/C [31] of 1.88%, a viability, T/C [32] of 2.14% and a viability, T/C [33] of 2.14%. It also gave a viability, T/C [34] of 0.97%, a viability, T/C [35] of 0.62% and a viability, T/C [36] of 0.36%.
CC(C)n1nc(-c2ccc3oc(N)nc3c2)c2c(N)ncnc21 + CCn1c(-c2cc(N3CCN(C)CC3)cnc2C(C)OC)c2c3cc(ccc31)-c1csc(n1)CC(NC(=O)C1CC1C)C(=O)N1CCCC(N1)C(=O)OCC(C)(C)C2 was tested, and the IC50 (second compound 0.000949 µM) was 34.8 nM, the IC50 (second compound 0.003 µM) was under 0.316 nM and the IC50 (second compound 0.00949 µM) was under 0.316 nM. It also gave an IC50 (second compound 0.03 µM) of under 0.316 nM, an IC50 (second compound 0.0949 µM) of under 0.316 nM and an IC50 (second compound 0.3 µM) of under 0.316 nM. The viability, T/C (second compound 0.000949 µM, first compound 0.000316 µM) was 82%, the viability, T/C (second compound 0.000949 µM, first compound 0.001 µM) was 63.3% and the viability, T/C (second compound 0.000949 µM, first compound 0.00316 µM) was 73.7%. The viability, T/C (second compound 0.000949 µM, first compound 0.01 µM) was 65%, the viability, T/C [1] was 51.4% and the viability, T/C [2] was 30.5%. The viability, T/C (second compound 0.003 µM, first compound 0.000316 µM) was 35.6%, the viability, T/C (second compound 0.003 µM, first compound 0.001 µM) was 40.4% and the viability, T/C (second compound 0.003 µM, first compound 0.00316 µM) was 37%. For the same compound, the viability, T/C (second compound 0.003 µM, first compound 0.01 µM) was 34.4%, the viability, T/C [7] was 29.1% and the viability, T/C [8] was 18.6%. For the same compound, the viability, T/C (second compound 0.00949 µM, first compound 0.000316 µM) was 4.03%, the viability, T/C (second compound 0.00949 µM, first compound 0.001 µM) was 3.88% and the viability, T/C (second compound 0.00949 µM, first compound 0.00316 µM) was 4.42%. It also gave a viability, T/C (second compound 0.00949 µM, first compound 0.01 µM) of 3.62%, a viability, T/C [13] of 2.93% and a viability, T/C [14] of 2.22%. It also gave a viability, T/C (second compound 0.03 µM, first compound 0.000316 µM) of 2.41%, a viability, T/C (second compound 0.03 µM, first compound 0.001 µM) of 2.53% and a viability, T/C (second compound 0.03 µM, first compound 0.00316 µM) of 2.94%. For the same compound, the viability, T/C (second compound 0.03 µM, first compound 0.01 µM) was 2.25%, the viability, T/C [19] was 2.43% and the viability, T/C [20] was 0.98%. The viability, T/C (second compound 0.0949 µM, first compound 0.000316 µM) was 2.52%, the viability, T/C (second compound 0.0949 µM, first compound 0.001 µM) was 2.03% and the viability, T/C (second compound 0.0949 µM, first compound 0.00316 µM) was 1.78%. For the same compound, the viability, T/C (second compound 0.0949 µM, first compound 0.01 µM) was 1.41%, the viability, T/C [25] was 1.07% and the viability, T/C [26] was 0.65%. It also gave a viability, T/C (second compound 0.3 µM, first compound 0.000316 µM) of 1.86%, a viability, T/C (second compound 0.3 µM, first compound 0.001 µM) of 1.82% and a viability, T/C (second compound 0.3 µM, first compound 0.00316 µM) of 2.06%. For the same compound, the viability, T/C (second compound 0.3 µM, first compound 0.01 µM) was 1.52%, the viability, T/C [31] was 1.91% and the viability, T/C [32] was 0.73%.
Work on CC(Nc1ccc2c(c1)OCCn1cc(N3C(=O)OCC3C(F)F)nc1-2)C(N)=O (stereo not drawn) + CCn1c(-c2cc(N3CCN(C)CC3)cnc2C(C)OC)c2c3cc(ccc31)-c1csc(n1)CC(NC(=O)C1CC1C)C(=O)N1CCCC(N1)C(=O)OCC(C)(C)C2 yielded an IC50 (second compound 0.000949 µM) of 129 nM, an IC50 (second compound 0.003 µM) of under 31.6 nM and an IC50 (second compound 0.00949 µM) of under 31.6 nM. The IC50 (second compound 0.03 µM) was under 31.6 nM, the IC50 (second compound 0.0949 µM) was under 31.6 nM and the IC50 (second compound 0.3 µM) was under 31.6 nM. For the same compound, the viability, T/C [1] was 64.5%, the viability, T/C [2] was 49.2% and the viability, T/C [3] was 39.7%. It also gave a viability, T/C [4] of 38.6%, a viability, T/C [5] of 29.7% and a viability, T/C [6] of 19.4%. The viability, T/C [7] was 26.1%, the viability, T/C [8] was 19.6% and the viability, T/C [9] was 15.7%. For the same compound, the viability, T/C [10] was 11.4%, the viability, T/C [11] was 9.07% and the viability, T/C [12] was 7.98%. It also gave a viability, T/C [13] of 2.72%, a viability, T/C [14] of 1.99% and a viability, T/C [15] of 1.32%. It also gave a viability, T/C [16] of 1.55%, a viability, T/C [17] of 0.87% and a viability, T/C [18] of 0.68%. It also gave a viability, T/C [19] of 2.18%, a viability, T/C [20] of 1.47% and a viability, T/C [21] of 0.93%. It also gave a viability, T/C [22] of 0.68%, a viability, T/C [23] of 0.45% and a viability, T/C [24] of 0.32%. For the same compound, the viability, T/C [25] was 1.46%, the viability, T/C [26] was 1.18% and the viability, T/C [27] was 0.72%. The viability, T/C [28] was 0.45%, the viability, T/C [29] was 0.31% and the viability, T/C [30] was 0.62%. The viability, T/C [31] was 1.36%, the viability, T/C [32] was 0.73% and the viability, T/C [33] was 0.51%. It also gave a viability, T/C [34] of 0.35%, a viability, T/C [35] of 0.22% and a viability, T/C [36] of 0.52%.
Work on C[C@@H](NC(=O)c1ncnc(N)c1Cl)c1ncc(C(=O)Nc2cc(C(F)(F)F)c(Cl)cn2)s1 + CCn1c(-c2cc(N3CCN(C)CC3)cnc2C(C)OC)c2c3cc(ccc31)-c1csc(n1)CC(NC(=O)C1CC1C)C(=O)N1CCCC(N1)C(=O)OCC(C)(C)C2 yielded an IC50 (second compound 0.000949 µM) of 5630 nM, an IC50 (second compound 0.003 µM) of 2600 nM and an IC50 (second compound 0.00949 µM) of under 31.6 nM. The IC50 (second compound 0.03 µM) was under 31.6 nM, the IC50 (second compound 0.0949 µM) was under 31.6 nM and the IC50 (second compound 0.3 µM) was under 31.6 nM. It also gave a viability, T/C [1] of 104%, a viability, T/C [2] of 113% and a viability, T/C [3] of 124%. The viability, T/C [4] was 127%, the viability, T/C [5] was 82% and the viability, T/C [6] was 18.2%. It also gave a viability, T/C [7] of 66.6%, a viability, T/C [8] of 76.1% and a viability, T/C [9] of 83.8%. It also gave a viability, T/C [10] of 82.1%, a viability, T/C [11] of 44.4% and a viability, T/C [12] of 12%. It also gave a viability, T/C [13] of 8.34%, a viability, T/C [14] of 12.9% and a viability, T/C [15] of 15.3%. The viability, T/C [16] was 13.6%, the viability, T/C [17] was 9.29% and the viability, T/C [18] was 4.48%. For the same compound, the viability, T/C [19] was 3.38%, the viability, T/C [20] was 2.96% and the viability, T/C [21] was 2.78%. The viability, T/C [22] was 2.66%, the viability, T/C [23] was 2.41% and the viability, T/C [24] was 2.96%. For the same compound, the viability, T/C [25] was 2.75%, the viability, T/C [26] was 2.95% and the viability, T/C [27] was 2.73%. It also gave a viability, T/C [28] of 2.82%, a viability, T/C [29] of 2.56% and a viability, T/C [30] of 2.32%. It also gave a viability, T/C [31] of 2.53%, a viability, T/C [32] of 2.03% and a viability, T/C [33] of 2.73%. It also gave a viability, T/C [34] of 2.35%, a viability, T/C [35] of 3.08% and a viability, T/C [36] of 2.77%.
